Data: PubChem BioAssay (NCI)
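Dose response: 5 concentrations. Exposure: 48 h. Format: 96-well plates. Endpoint: linear interpolation; highest concentration if not reached. The concentration for full growth arrest is given as TGI.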

Columns and labels:
Assay in all cases: inhibition of tumour cell growth, NCI panel, 48 h
786-0 renal = tested on: 786-0 renal
A498 renal = tested on: A498 renal
A549 NSCLC = tested on: A549 NSCLC
ACHN renal = tested on: ACHN renal
BT-549 breast = tested on: BT-549 breast
CAKI-1 renal = tested on: CAKI-1 renal
CCRF-CEM leukemia = tested on: CCRF-CEM leukemia
COLO 205 colon = tested on: COLO 205 colon
DU-145 prostate = tested on: DU-145 prostate
EKVX NSCLC = tested on: EKVX NSCLC
HCC-2998 colon = tested on: HCC-2998 colon
HCT-116 colon = tested on: HCT-116 colon
HCT-15 colon = tested on: HCT-15 colon
HL-60(TB) leukemia = tested on: HL-60(TB) leukemia
HOP-62 NSCLC = tested on: HOP-62 NSCLC
HOP-92 NSCLC = tested on: HOP-92 NSCLC
HS 578T breast = tested on: HS 578T breast
HT29 colon = tested on: HT29 colon
IGROV1 ovarian = tested on: IGROV1 ovarian
K-562 leukemia = tested on: K-562 leukemia
KM12 colon = tested on: KM12 colon
LOX IMVI melanoma = tested on: LOX IMVI melanoma
M14 melanoma = tested on: M14 melanoma
MALME-3M melanoma = tested on: MALME-3M melanoma
MCF7 breast = tested on: MCF7 breast
MDA-MB-231 breast = tested on: MDA-MB-231 breast
MDA-MB-435 = tested on: MDA-MB-435
MDA-N = tested on: MDA-N
MOLT-4 leukemia = tested on: MOLT-4 leukemia
NCI-H226 lung = tested on: NCI-H226 lung
NCI-H23 lung = tested on: NCI-H23 lung
NCI-H460 lung = tested on: NCI-H460 lung
NCI-H522 lung = tested on: NCI-H522 lung
NCI/ADR-RES ovarian = tested on: NCI/ADR-RES ovarian
OVCAR-3 ovarian = tested on: OVCAR-3 ovarian
OVCAR-4 ovarian = tested on: OVCAR-4 ovarian
OVCAR-5 ovarian = tested on: OVCAR-5 ovarian
OVCAR-8 ovarian = tested on: OVCAR-8 ovarian
PC-3 prostate = tested on: PC-3 prostate
RPMI-8226 leukemia = tested on: RPMI-8226 leukemia
RXF 393 renal = tested on: RXF 393 renal
SF-268 CNS = tested on: SF-268 CNS
SF-295 CNS = tested on: SF-295 CNS
SF-539 CNS = tested on: SF-539 CNS
SK-MEL-2 melanoma = tested on: SK-MEL-2 melanoma
SK-MEL-28 melanoma = tested on: SK-MEL-28 melanoma
SK-MEL-5 melanoma = tested on: SK-MEL-5 melanoma
SK-OV-3 ovarian = tested on: SK-OV-3 ovarian
SN12C renal = tested on: SN12C renal
SNB-19 CNS = tested on: SNB-19 CNS
SNB-75 CNS = tested on: SNB-75 CNS
SR leukemia = tested on: SR leukemia
SW-620 colon = tested on: SW-620 colon
T-47D breast = tested on: T-47D breast
TK-10 renal = tested on: TK-10 renal
U251 CNS = tested on: U251 CNS
UACC-257 melanoma = tested on: UACC-257 melanoma
UACC-62 melanoma = tested on: UACC-62 melanoma
UO-31 renal = tested on: UO-31 renal

CCN(CC)CC(O)c1ccc2ccc3ccccc3c2c1 (configuration not stated)
TGI (786-0 renal): 25.6 µM
TGI (A498 renal): 26.3 µM
TGI (A549 NSCLC): 31.4 µM
TGI (ACHN renal): 27.3 µM
TGI (BT-549 breast): 30.5 µM
TGI (CAKI-1 renal): 26.6 µM
TGI (CCRF-CEM leukemia): 45.3 µM
TGI (COLO 205 colon): 29.9 µM
TGI (DU-145 prostate): 33 µM
TGI (EKVX NSCLC): 29.5 µM
TGI (HCC-2998 colon): 23 µM
TGI (HCT-116 colon): 29.5 µM
TGI (HCT-15 colon): 33.2 µM
TGI (HL-60(TB) leukemia): 30.1 µM
TGI (HOP-62 NSCLC): 29.6 µM
TGI (HOP-92 NSCLC): 31.3 µM
TGI (HS 578T breast): 41.9 µM
TGI (HT29 colon): 25.2 µM
TGI (IGROV1 ovarian): 33 µM
TGI (K-562 leukemia): 32.5 µM
TGI (KM12 colon): 29.1 µM
TGI (LOX IMVI melanoma): 35.5 µM
TGI (M14 melanoma): 30.9 µM
TGI (MALME-3M melanoma): 34 µM
TGI (MCF7 breast): 28.2 µM
TGI (MDA-MB-231 breast): 28.4 µM
TGI (MDA-MB-435): 31.3 µM
TGI (MDA-N): 31 µM
TGI (MOLT-4 leukemia): 32.9 µM
TGI (NCI-H226 lung): 29.5 µM
TGI (NCI-H23 lung): 37 µM
TGI (NCI-H460 lung): 32.7 µM
TGI (NCI-H522 lung): 31.9 µM
TGI (NCI/ADR-RES ovarian): 33.6 µM
TGI (OVCAR-3 ovarian): 29.1 µM
TGI (OVCAR-4 ovarian): 35.3 µM
TGI (OVCAR-5 ovarian): 27.5 µM
TGI (OVCAR-8 ovarian): 32 µM
TGI (PC-3 prostate): 30.1 µM
TGI (RPMI-8226 leukemia): 38.2 µM
TGI (RXF 393 renal): 31.4 µM
TGI (SF-268 CNS): 34.7 µM
TGI (SF-295 CNS): 28.9 µM
TGI (SF-539 CNS): 25.8 µM
TGI (SK-MEL-2 melanoma): 30.9 µM
TGI (SK-MEL-28 melanoma): 34.6 µM
TGI (SK-MEL-5 melanoma): 27.3 µM
TGI (SK-OV-3 ovarian): 29.5 µM
TGI (SN12C renal): 32.1 µM
TGI (SNB-19 CNS): 29.5 µM
TGI (SNB-75 CNS): 33.5 µM
TGI (SR leukemia): 24.8 µM
TGI (SW-620 colon): 34.9 µM
TGI (T-47D breast): 37.7 µM
TGI (TK-10 renal): 29.9 µM
TGI (U251 CNS): 26 µM
TGI (UACC-257 melanoma): 31.5 µM
TGI (UACC-62 melanoma): 29.1 µM
TGI (UO-31 renal): 24.1 µM

CCCCCCCCCc1cc(O)c(O)cc1CCCCCCCCC
TGI (786-0 renal): > 10 µM
TGI (A498 renal): > 10 µM
TGI (A549 NSCLC): > 10 µM
TGI (ACHN renal): > 10 µM
TGI (BT-549 breast): > 10 µM
TGI (CAKI-1 renal): > 10 µM
TGI (CCRF-CEM leukemia): > 10 µM
TGI (COLO 205 colon): > 10 µM
TGI (DU-145 prostate): > 10 µM
TGI (EKVX NSCLC): > 10 µM
TGI (HCC-2998 colon): > 10 µM
TGI (HCT-116 colon): > 10 µM
TGI (HCT-15 colon): > 10 µM
TGI (HL-60(TB) leukemia): > 10 µM
TGI (HOP-62 NSCLC): > 10 µM
TGI (HOP-92 NSCLC): > 10 µM
TGI (HS 578T breast): > 10 µM
TGI (HT29 colon): > 10 µM
TGI (IGROV1 ovarian): > 10 µM
TGI (K-562 leukemia): > 10 µM
TGI (KM12 colon): > 10 µM
TGI (LOX IMVI melanoma): > 10 µM
TGI (M14 melanoma): > 10 µM
TGI (MALME-3M melanoma): > 10 µM
TGI (MCF7 breast): > 10 µM
TGI (MDA-MB-231 breast): > 10 µM
TGI (MDA-MB-435): > 10 µM
TGI (MDA-N): > 10 µM
TGI (MOLT-4 leukemia): > 10 µM
TGI (NCI-H226 lung): > 10 µM
TGI (NCI-H23 lung): > 10 µM
TGI (NCI-H460 lung): > 10 µM
TGI (NCI-H522 lung): > 10 µM
TGI (NCI/ADR-RES ovarian): > 10 µM
TGI (OVCAR-3 ovarian): > 10 µM
TGI (OVCAR-4 ovarian): > 10 µM
TGI (OVCAR-5 ovarian): > 10 µM
TGI (OVCAR-8 ovarian): > 10 µM
TGI (PC-3 prostate): > 10 µM
TGI (RPMI-8226 leukemia): > 10 µM
TGI (RXF 393 renal): > 10 µM
TGI (SF-268 CNS): > 10 µM
TGI (SF-295 CNS): > 10 µM
TGI (SF-539 CNS): > 10 µM
TGI (SK-MEL-2 melanoma): > 10 µM
TGI (SK-MEL-28 melanoma): > 10 µM
TGI (SK-MEL-5 melanoma): > 10 µM
TGI (SK-OV-3 ovarian): > 10 µM
TGI (SN12C renal): > 10 µM
TGI (SNB-19 CNS): > 10 µM
TGI (SNB-75 CNS): > 10 µM
TGI (SR leukemia): > 10 µM
TGI (SW-620 colon): > 10 µM
TGI (T-47D breast): > 10 µM
TGI (TK-10 renal): > 10 µM
TGI (U251 CNS): > 10 µM
TGI (UACC-257 melanoma): > 10 µM
TGI (UACC-62 melanoma): > 10 µM
TGI (UO-31 renal): > 10 µM

CCCCC1Cc2cc(O)ccc2-c2n1c1cc(O)ccc1[n+]2C (configuration not stated) (tested in a mixture with another compound)
TGI (786-0 renal): > 100 µM
TGI (A498 renal): > 100 µM
TGI (A549 NSCLC): > 100 µM
TGI (ACHN renal): 98.7 µM
TGI (BT-549 breast): > 100 µM
TGI (CAKI-1 renal): > 100 µM
TGI (CCRF-CEM leukemia): > 100 µM
TGI (COLO 205 colon): 44.2 µM
TGI (DU-145 prostate): > 100 µM
TGI (EKVX NSCLC): > 100 µM
TGI (HCC-2998 colon): > 100 µM
TGI (HCT-116 colon): > 100 µM
TGI (HCT-15 colon): > 88.3 µM
TGI (HL-60(TB) leukemia): > 86.4 µM
TGI (HOP-62 NSCLC): > 100 µM
TGI (HOP-92 NSCLC): 73.8 µM
TGI (HS 578T breast): > 51.4 µM
TGI (HT29 colon): > 100 µM
TGI (IGROV1 ovarian): > 83.8 µM
TGI (K-562 leukemia): > 100 µM
TGI (KM12 colon): > 100 µM
TGI (LOX IMVI melanoma): > 100 µM
TGI (M14 melanoma): > 100 µM
TGI (MALME-3M melanoma): 73.4 µM
TGI (MCF7 breast): > 72.7 µM
TGI (MDA-MB-231 breast): > 100 µM
TGI (MDA-MB-435): 59.6 µM
TGI (MDA-N): > 100 µM
TGI (MOLT-4 leukemia): > 100 µM
TGI (NCI-H226 lung): > 100 µM
TGI (NCI-H23 lung): > 76.2 µM
TGI (NCI-H460 lung): > 100 µM
TGI (NCI-H522 lung): > 47.4 µM
TGI (NCI/ADR-RES ovarian): > 100 µM
TGI (OVCAR-3 ovarian): 98.7 µM
TGI (OVCAR-4 ovarian): 97.6 µM
TGI (OVCAR-5 ovarian): > 100 µM
TGI (OVCAR-8 ovarian): > 100 µM
TGI (PC-3 prostate): > 100 µM
TGI (RPMI-8226 leukemia): 75.1 µM
TGI (RXF 393 renal): > 90.3 µM
TGI (SF-268 CNS): > 59.5 µM
TGI (SF-295 CNS): > 60.1 µM
TGI (SF-539 CNS): > 100 µM
TGI (SK-MEL-2 melanoma): > 100 µM
TGI (SK-MEL-28 melanoma): 74.3 µM
TGI (SK-MEL-5 melanoma): 22 µM
TGI (SK-OV-3 ovarian): > 100 µM
TGI (SN12C renal): > 100 µM
TGI (SNB-19 CNS): > 39.8 µM
TGI (SNB-75 CNS): > 100 µM
TGI (SR leukemia): > 100 µM
TGI (SW-620 colon): > 100 µM
TGI (T-47D breast): > 100 µM
TGI (TK-10 renal): > 100 µM
TGI (U251 CNS): > 62.3 µM
TGI (UACC-257 melanoma): 80 µM
TGI (UACC-62 melanoma): > 81.5 µM
TGI (UO-31 renal): > 100 µM
